Where two headings read alike, the source gives them in different places.
Target: T1, CYP4A (Homo sapiens, UniProt Q02928)
T1 construct: host or cells: bactosome, i.e. bacterial membrane preparation (own knowledge of the term)
T1 sequence (Q02928 5-519): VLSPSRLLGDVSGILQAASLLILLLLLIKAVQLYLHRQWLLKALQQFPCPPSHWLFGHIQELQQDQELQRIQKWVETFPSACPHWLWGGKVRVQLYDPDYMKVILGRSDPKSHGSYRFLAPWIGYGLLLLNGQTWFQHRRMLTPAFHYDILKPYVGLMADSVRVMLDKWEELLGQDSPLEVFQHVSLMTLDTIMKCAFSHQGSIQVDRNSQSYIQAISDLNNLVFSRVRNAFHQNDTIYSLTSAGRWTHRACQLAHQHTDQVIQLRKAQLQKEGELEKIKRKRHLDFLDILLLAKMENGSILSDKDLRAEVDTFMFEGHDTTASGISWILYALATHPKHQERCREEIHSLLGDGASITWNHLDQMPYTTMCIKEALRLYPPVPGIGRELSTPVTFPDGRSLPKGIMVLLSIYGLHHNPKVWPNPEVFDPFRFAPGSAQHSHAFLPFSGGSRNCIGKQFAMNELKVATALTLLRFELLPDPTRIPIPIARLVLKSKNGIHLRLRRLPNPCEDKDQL
Assay: CYP4A enzyme assay (Luciferin-ME luminescence, CYP4A bactosome)
Format: biochemical
Settings: compound concentration 5 μM
Description: A commercially available reagent was used for the reagent used in the experiment, and it was manufactured and used if necessary. The device used for activity measurement was EnVision of PerkinElmer or SpectraMax of MOLECULAR DEVICES.
First, CYP4A bactosome and synthetic compound (5 μM) were mixed in assay buffer (100 mM KPO4, 0.1% BSA, 1 mM DTT) in a 384-well plate (white opaque ploystyrene nontreated flat-bottom well), and then reacted at room temperature for 15 minutes. After adding 5 mM Luciferin-ME and NADPH Regeneration system (10× sol.A, 20× sol.B in assay buffer, Cat. Number: V865B, Promega), leave it at room temperature for 30 minutes to allow the CYP4A reaction to occur sufficiently, by adding the Luciferin Detection reagent, the CYP4A reaction was finished, luminescence reaction was induced, and the reaction was carried out at room temperature for 15 minutes. The degree of inhibition of CYP4A activity was measured by comparing the luminescence values from each well with a microplate reader.

[1] = 75% or more, read-out: % Inhibition 75% or more
[2] = 25%-50%, read-out: % Inhibition 25%-50%
[3] = '50%-75%', read-out: % Inhibition 50%-75%

| inhibition at 5 µM [1] [%] | Compound | other results |
| --- | --- | --- |
| ≥ 75 | O=C(C1CCCN(S(=O)(=O)c2ccc(-c3cccnc3)cc2)C1)N1CCN(c2ccnc3ccccc23)CC1 (centres unmarked) [Formula 114, (1-(4-(pyridin-3-yl)phenylsulfonyl)piperidin-3-yl) (4-(quinolin-4-yl)piperazin-1-yl) methanone] | – |
| – | Cc1cc(N2CCN(C(=O)C3CCCN(S(=O)(=O)c4ccccc4)C3)CC2)c2ccccc2n1 (centres unmarked) [Formula 19, (4-(2-methylquinolin-4-yl)piperazin-1-yl) (1-(phenylsulfonyl)piperidin-3-yl) methanone] | inhibition at 5 µM [2]: 25 to 50% |
| – | Cc1cccc(S(=O)(=O)N2CCCC(C(=O)N3CCN(c4cc(C)nc5ccccc45)CC3)C2)c1 (centres unmarked) [Formula 21, (4-(2-methylquinolin-4-yl)piperazin-1-yl) (1-(m-tolylsulfonyl)piperidin-3-yl) methanone] | inhibition at 5 µM [2]: 25 to 50% |
| – | O=C([C@@H]1CCCN(S(=O)(=O)c2ccc(O)cc2)C1)N1CCN(c2cc(C(F)(F)F)nc3ccccc23)CC1 [Formula 69, (R)-(1-(4-hydroxyphenylsulfonyl)piperidin-3-yl) (4-(2-(trifluoromethyl)quinolin-4-yl)piperazin-1-yl) methanone] | inhibition at 5 µM [3]: 50 to 75% |
| – | Cc1cc(N2CCN(C(=O)C3CCCN(S(=O)(=O)c4ccc(C(=O)N(C)C)cc4)C3)CC2)c2ccccc2n1 (centres unmarked) [Formula 101, N,N-dimethyl-4-(3-(1-(2-methylquinolin-4-yl)piperazine-4-carbonyl)piperidin-1-ylsulfonyl)benzamide] | inhibition at 5 µM [2]: 25 to 50% |
| ≥ 75 | O=C(C1CCCN(S(=O)(=O)c2ccc(O)cc2)C1)N1CCN(c2ccnc3cc(Cl)ccc23)CC1 (centres unmarked) [Formula 5, (4-(7-chloroquinolin-4-yl)piperazin-1-yl) (1-((4-hydroxyphenyl)sulfonyl)piperidin-3-yl) methanone] | – |
| ≥ 75 | CCCCc1ccc(N=CNO)c(C)c1 [HET-0016, N-hydroxy-N′-(4-butyl-2-methylphenyl)-formamidine, reference compound] | – |
| ≥ 75 | CC(=O)Nc1ccc(S(=O)(=O)N2CCCC(C(=O)N3CCN(c4ccnc5cc(Cl)ccc45)CC3)C2)cc1 (centres unmarked) [Formula 116, N-(4-(3-(4-(7-chloroquinolin-4-yl)piperazine-1-carbonyl)piperidin-1-ylsulfonyl)phenyl) acetamide] | – |
| ≥ 75 | O=C(C1CCCN(S(=O)(=O)c2cccc(O)c2)C1)N1CCN(c2ccnc3cc(F)ccc23)CC1 (centres unmarked) [Formula 94, (4-(7-fluoroquinolin-4-yl)piperazin-1-yl) (1-(3-hydroxyphenylsulfonyl)piperidin-3-yl) methanone] | – |
| ≥ 75 | O=C(C1CCCN(S(=O)(=O)c2cccc([N+](=O)[O-])c2)C1)N1CCN(c2ccnc3cc(Cl)ccc23)CC1 (centres unmarked) [Formula 6, (4-(7-chloroquinolin-4-yl)piperazin-1-yl) (1-((3-nitrophenyl)sulfonyl)piperidin-3-yl) methanone] | – |
| 0 | Cc1cc(N2CCN(C(=O)C3CCCN(S(=O)(=O)c4ccc(-c5ccncc5)cc4)C3)CC2)c2ccccc2n1 (centres unmarked) [Formula 102, (4-(2-methylquinolin-4-yl)piperazin-1-yl) (1-((4-(pyridin-4-yl)phenyl)sulfonyl)piperidin-3-yl)methanone] | – |
| 0 | Cc1cc(N2CCN(C(=O)C3CCCN(S(=O)(=O)c4ccc(-c5cccnc5)cc4)C3)CC2)c2ccccc2n1 (centres unmarked) [Formula 105, (4-(2-methylquinolin-4-yl)piperazin-1-yl) (1-((4-(pyridin-3-yl)phenyl)sulfonyl)piperidin-3-yl) methanone] | – |
| ≥ 75 | O=C(C1CCCN(S(=O)(=O)c2cccc(Br)c2)C1)N1CCN(c2ccnc3cc(F)ccc23)CC1 (centres unmarked) [Formula 62, (1-(3-bromophenylsulfonyl)piperidin-3-yl) (4-(7-fluoroquinolin-4-yl)piperazin-1-yl) methanone] | – |
| – | COc1ccc2c(N3CCN(C(=O)C4CCCN(S(=O)(=O)c5ccc(N(C)C)cc5)C4)CC3)ccnc2c1 (centres unmarked) [Formula 90, (1-(4-(dimethylamino)phenylsulfonyl)piperidin-3-yl) (4-(7-methoxyquinolin-4-yl)piperazin-1-yl) methanone] | inhibition at 5 µM [3]: 50 to 75% |
| – | Cc1ccc(S(=O)(=O)N2CCCC(C(=O)N3CCN(c4cc(C)nc5ccccc45)CC3)C2)cc1 (centres unmarked) [Formula 20, (4-(2-methylquinolin-4-yl)piperazin-1-yl) (1-tosylpiperidin-3-yl) methanone] | inhibition at 5 µM [2]: 25 to 50% |
| ≥ 75 | Cc1cc(N2CCN(C(=O)C3CCCN(S(=O)(=O)c4ccc([N+](=O)[O-])cc4)C3)CC2)c2ccccc2n1 (centres unmarked) [Formula 18, (4-(2-methylquinolin-4-yl)piperazin-1-yl) (1-(4-nitrophenylsulfonyl)piperidin-3-yl) methanone] | – |
| 0 | O=C([C@@H]1CCCN(S(=O)(=O)c2ccc(Br)cc2)C1)N1CCN(c2ccnc3cc(F)ccc23)CC1 [Formula 57, (R)-(1-(4-bromophenylsulfonyl)piperidin-3-yl) (4-(7-fluoroquinolin-4-yl)piperazin-1-yl) methanone] | – |
| – | CN(C)c1ccc(S(=O)(=O)N2CCCC(C(=O)N3CCN(c4cc(C(F)(F)F)nc5ccccc45)CC3)C2)cc1 (centres unmarked) [Formula 67, (1-(4-(dimethylamino)phenylsulfonyl)piperidin-3-yl) (4-(2-(trifluoromethyl)quinolin-4-yl)piperazin-1-yl) methanone] | inhibition at 5 µM [3]: 50 to 75% |
| ≥ 75 | O=C(C1CCCN(S(=O)(=O)c2ccc(-c3ccncc3)cc2)C1)N1CCN(c2ccnc3ccccc23)CC1 (centres unmarked) [Formula 113, (1-(4-(pyridin-4-yl)phenylsulfonyl)piperidin-3-yl) (4-(quinolin-4-yl)piperazin-1-yl) methanone] | – |
| – | Cc1cc(N2CCN(C(=O)C3CCCN(S(=O)(=O)c4ccc(C)c(C)c4)C3)CC2)c2ccccc2n1 (centres unmarked) [Formula 22, (1-((3,4-dimethylphenyl)sulfonyl)piperidin-3-yl) (4-(2-methylquinolin-4-yl)piperazin-1-yl) methanone] | inhibition at 5 µM [2]: 25 to 50% |
| – | COc1ccc2c(N3CCN(C(=O)C4CCCN(S(=O)(=O)c5ccc(NC(C)=O)cc5)C4)CC3)ccnc2c1 (centres unmarked) [Formula 87, N-(4-(3-(1-(7-methoxyquinolin-4-yl)piperazine-4-carbonyl)piperidin-1-ylsulfonyl)phenyl) acetamide] | inhibition at 5 µM [3]: 0% |
| ≥ 75 | O=C(C1CCCN(S(=O)(=O)c2cccc([N+](=O)[O-])c2)C1)N1CCN(c2ccnc3ccccc23)CC1 (centres unmarked) [Formula 82, (1-(3-nitrophenylsulfonyl)piperidin-3-yl) (4-(quinolin-4-yl)piperazin-1-yl) methanone] | – |
| – | Cc1cc(N2CCN(C(=O)C3CCCN(S(=O)(=O)c4ccc(C#N)cc4)C3)CC2)c2ccccc2n1 (centres unmarked) [Formula 35, 4-(3-(1-(2-methylquinolin-4-yl)piperazine-4-carbonyl)piperidin-1-ylsulfonyl)benzonitrile] | inhibition at 5 µM [3]: 50 to 75% |
| ≥ 75 | O=C(C1CCCN(S(=O)(=O)c2ccc([N+](=O)[O-])cc2)C1)N1CCN(c2ccnc3cc(F)ccc23)CC1 (centres unmarked) [Formula 50, (4-(7-fluoroquinolin-4-yl)piperazin-1-yl) (1-(4-nitrophenylsulfonyl)piperidin-3-yl) methanone] | – |
| ≥ 75 | COc1cccc(S(=O)(=O)N2CCCC(C(=O)N3CCN(c4ccnc5ccccc45)CC3)C2)c1 (centres unmarked) [Formula 86, (1-(3-methoxyphenylsulfonyl)piperidin-3-yl) (4-(quinolin-4-yl)piperazin-1-yl) methanone] | – |
| ≥ 75 | O=C(C1CCCN(S(=O)(=O)c2cccc([N+](=O)[O-])c2)C1)N1CCN(c2ccnc3cc(F)ccc23)CC1 (centres unmarked) [Formula 51, (4-(7-fluoroquinolin-4-yl)piperazin-1-yl) (1-(3-nitrophenylsulfonyl)piperidin-3-yl) methanone] | – |
| ≥ 75 | CN(C)c1ccc(S(=O)(=O)N2CCCC(C(=O)N3CCN(c4ccnc5ccccc45)CC3)C2)cc1 (centres unmarked) [Formula 77, (1-(4-(dimethylamino)phenylsulfonyl)piperidin-3-yl) (4-(quinolin-4-yl)piperazin-1-yl) methanone] | – |
| ≥ 75 | CC(=O)Nc1ccc(S(=O)(=O)N2CCCC(C(=O)N3CCN(c4cc(C)nc5ccccc45)CC3)C2)cc1 (centres unmarked) [Formula 15, N-(4-(3-(1-(2-methylquinolin-4-yl)piperazine-4-carbonyl)piperidin-1-ylsulfonyl)phenyl) acetamide] | – |
| ≥ 75 | CC(=O)c1ccc(S(=O)(=O)N2CCCC(C(=O)N3CCN(c4ccnc5cc(F)ccc45)CC3)C2)cc1 (centres unmarked) [Formula 54, 1-(4-(3-(1-(7-fluoroquinolin-4-yl)piperazine-4-carbonyl)piperidin-1-ylsulfonyl)phenyl) ethanone] | – |

— patent publication US12479821B2 (MBD CO., LTD., priority 2019, dated 2025)
